Legend:
Type in all cases: in vivo
[1] = test system: Alopecurus myosuroides (ALOMY); experiment: Herbicidal pre-emergence action; details: 1280 g/ha, graded after ca. 3 weeks
Excerpt: (§1) Seeds of mono- and dicotyledonous weed plants and crop plants were sown, in plastic or organic planting pots, in sandy loam and covered with soil. The compounds according to the invention, formulated in the form of wettable powders (WP) or as emulsifiable concentrates (EC), were applied to the surface of the covering soil as aqueous suspension or emulsion, with the addition of 0.5% of an additive, at an application rate of 600 1 of water/ha (converted).
(§2) Following treatment, the pots were placed in a greenhouse and kept under optimum growth conditions for the test plants. The visual grading of the damage to the test plants was carried out after ca. 3 weeks in comparison to untreated controls (herbicidal effect in percent (%): 100% effect=plants have died off, 0% effect=as control plants).
(§3) Tables A1 to A16, below, show the effects of selected compounds of the general formula (I) according to table 1 on various harmful plants and an application rate corresponding to 1280 g/ha or lower obtained by the experimental procedure mentioned above.

Avena fatua (AVEFA) [2] = experiment: Herbicidal pre-emergence action; details: 1280 g/ha, graded after ca. 3 weeks
Excerpt: as §1, §2, §3

[3] = test system: Echinochloa crus-galli (ECHCG); experiment: Herbicidal pre-emergence action; details: 1280 g/ha, graded after ca. 3 weeks
Excerpt: as §1, §2, §3

[4] = test system: Lolium multiflorum (LOLMU); experiment: Herbicidal pre-emergence action; details: 1280 g/ha, graded after ca. 3 weeks
Excerpt: as §1, §2, §3

Setaria viridis (SETVI) [5] = experiment: Herbicidal pre-emergence action; details: 1280 g/ha, graded after ca. 3 weeks
Excerpt: as §1, §2, §3

[6] = test system: Alopecurus myosuroides (ALOMY); experiment: Herbicidal post-emergence action; details: 1280 g/ha, assessed after ca. 3 weeks
Excerpt: (§4) Seeds of mono- and dicotyledonous weed plants and crop plants were sown, in plastic or organic planting pots, in sandy loam, covered with soil and grown in a greenhouse under controlled growth conditions. 2 to 3 weeks after sowing, the test plants were sprayed in the single-leaf stage. The compounds according to the invention, formulated in form of wettable powders (WP) or as emulsifiable concentrates (EC), were sprayed onto the green plant parts as aqueous suspension or emulsion, with the addition of 0.5% of an additive, at an application rate of 600 1 of water/ha (converted). The test plants were placed in the greenhouse for ca. 3 weeks under optimum growth conditions, and then the effect of the preparations was assessed visually in comparison with untreated controls (herbicidal effect in percent (%): 100% effect=plants have died off, 0% effect=as control plants).
(§5) Tables B1 to B16 below show the effects of selected compounds of the general formula (I) according to table 1 on various harmful plants and an application rate corresponding to 1280 g/ha or 320 g/ha obtained by the experimental procedure mentioned above.

Avena fatua (AVEFA) [7] = experiment: Herbicidal post-emergence action; details: 1280 g/ha, assessed after ca. 3 weeks
Excerpt: as §4, §5

[8] = test system: Echinochloa crus-galli (ECHCG); experiment: Herbicidal post-emergence action; details: 1280 g/ha, assessed after ca. 3 weeks
Excerpt: as §4, §5

[9] = test system: Lolium multiflorum (LOLMU); experiment: Herbicidal post-emergence action; details: 1280 g/ha, assessed after ca. 3 weeks
Excerpt: as §4, §5

Setaria viridis (SETVI) [10] = experiment: Herbicidal post-emergence action; details: 1280 g/ha, assessed after ca. 3 weeks
Excerpt: as §4, §5

[11] = test system: Polygonum convolvulus (POLCO); experiment: Herbicidal pre-emergence action; details: 1280 g/ha, graded after ca. 3 weeks
Excerpt: as §1, §2, §3

Veronica persica (VERPE) = experiment: Herbicidal pre-emergence action; details: 1280 g/ha, graded after ca. 3 weeks
Excerpt: as §1, §2, §3

[12] = test system: Cyperus esculentus (CYPES); experiment: Herbicidal pre-emergence action; details: 1280 g/ha, graded after ca. 3 weeks
Excerpt: as §1, §2, §3

| SMILES | Pre-emergence activity against ALOMY [1] | Pre-emergence activity against AVEFA (Avena fatua (AVEFA) [2]) | Pre-emergence activity against ECHCG [3] | Pre-emergence activity against LOLMU [4] | Pre-emergence activity against SETVI (Setaria viridis (SETVI) [5]) | Post-emergence activity against ALOMY [6] | Post-emergence activity against AVEFA (Avena fatua (AVEFA) [7]) | Post-emergence activity against ECHCG [8] | Post-emergence activity against LOLMU [9] | Post-emergence activity against SETVI (Setaria viridis (SETVI) [10]) | Pre-emergence activity against POLCO [11] | Pre-emergence activity against VERPE (Veronica persica (VERPE)) | Pre-emergence activity against CYPES [12] |
| --- | --- | --- | --- | --- | --- | --- | --- | --- | --- | --- | --- | --- | --- |
| CC[C@@H](C)[C@@H](NC(=O)CC1CCC(=O)N1Cc1cccc(F)c1F)C(=O)O (single isomer, unassigned) [Example I-043] | 90% | 100% | 90% | 80% | 90% | 80% | 80% | 80% | 80% | 80% |  |  |  |
| CCC(C)OC(=O)CC1CCC(=O)N1Cc1cccc(F)c1F (racemic) [Example I-030] | 90% | 100% | 80% | 80% | 80% | 80% | 80% | 80% | 80% |  | 80% | 90% |  |
| COc1ccc(OCCOC(=O)CC2CCC(=O)N2Cc2cccc(F)c2F)cc1 (racemic) [Example I-031] | 90% | 100% | 80% |  |  | 90% |  | 90% | 90% | 80% | 80% |  | 80% |
| O=C(CC1CCC(=O)N1Cc1cccc(F)c1F)OCCSc1ccccc1 (racemic) [Example I-022] | 90% | 90% |  |  | 80% |  | 90% | 90% | 80% | 90% |  |  |  |
| NC(=O)CC1CCC(=O)N1Cc1cccc(F)c1F (racemic) [Example I-057] | 90% | 80% |  |  | 80% |  |  |  |  |  | 80% |  | 100% |
| Cc1ccc2c(c1)C(NC(=O)CC1CCC(=O)N1Cc1cccc(F)c1F)C(C)C2 (mixture of isomers) [Example I-106] |  |  |  |  |  |  |  |  |  |  |  | 80% |  |
| Cc1ccc(CN2C(=O)CCC2CC(=O)NS(C)(=O)=O)c(F)c1F (racemic) [Example I-087] | 90% |  |  |  |  |  |  |  |  |  |  | 100% |  |
| O=C(CC1CCC(=O)N1Cc1cccc(F)c1F)OC1CCC1 (racemic) [Example I-024] | 90% | 100% | 80% | 90% | 80% | 90% | 90% | 90% | 90% | 80% | 80% |  | 90% |
| Cc1nonc1NC(=O)CC1CCC(=O)N1Cc1cccc(F)c1F (stereo not drawn) [Example I-046, 2-[1-[(2,3-difluorophenyl)methyl]-5-oxo-pyrrolidin-2-yl]-N-(4-methyl-1,2,5-oxadiazol-3-yl)acetamide] |  | 100% |  |  |  |  | 90% |  | 80% |  |  | 100% | 100% |
| COC(=O)CC1CCC(=O)N1Cc1cccc(F)c1F (racemic) [Example I-008] | 90% | 100% | 90% | 80% | 90% | 80% | 90% | 90% | 80% | 80% | 90% |  |  |
| CCCC(C)OC(=O)CC1CCC(=O)N1Cc1cccc(F)c1F (racemic) [Example I-028] | 80% | 100% | 80% | 90% | 80% | 80% | 80% | 80% | 80% |  |  | 80% | 80% |
| CC(C)C(C)OC(=O)CC1CCC(=O)N1Cc1cccc(F)c1F (racemic) [Example I-036] | 90% | 100% | 80% | 80% | 100% | 80% | 90% | 90% |  |  | 80% | 90% |  |
| O=C(CC1CCC(=O)N1Cc1cccc(Cl)c1Cl)NS(=O)(=O)C(F)F (racemic) [Example I-095] |  |  |  |  |  |  |  |  |  |  |  | 80% |  |
| CCOC(=O)CC1CCC(=O)N1Cc1cccc(F)c1F (racemic) [Example I-019] | 90% | 100% | 90% | 90% | 90% | 80% | 100% | 80% | 90% |  | 90% |  | 80% |
| O=C(CC1CCC(=O)N1Cc1cccc(F)c1F)OCC1CC1 (racemic) [Example I-020] | 80% | 100% | 80% | 80% |  | 80% | 90% | 90% | 80% |  |  | 80% |  |
| O=C(CC1CCC(=O)N1Cc1cccc(F)c1F)NCc1ccc(Cl)nc1 (racemic) [Example I-102] |  |  |  |  |  |  |  |  |  |  | 80% | 90% |  |
| CS(=O)(=O)NC(=O)CC1CCC(=O)N1Cc1cccc(Cl)c1Cl (racemic) [Example I-105] |  |  |  |  |  |  |  |  |  |  |  | 90% |  |
| CC(C)(C)COC(=O)CC1CCC(=O)N1Cc1cccc(F)c1F (racemic) [Example I-018] | 90% | 100% | 90% | 90% | 90% | 80% | 80% | 90% | 80% |  | 80% | 90% | 80% |
| O=C(CC1CCC(=O)N1Cc1cccc(F)c1F)OCCS(=O)(=O)c1ccccc1 (racemic) [Example I-032] | 90% | 100% | 80% |  |  | 80% |  | 90% | 90% |  |  | 80% | 80% |

Reference: patent US20240199542A1, “SUBSTITUTED PYRROLIDIN-2-ONES, SALTS THEREOF AND THEIR USE AS HERBICIDALLY ACTIVE SUBSTANCES” (Bayer Aktiengesellschaft, priority 2021, published 2024)
